Measured values taken from US5770691A, “Discriminatory substrates for MMP hydrolysis” (Regents of the University of Minnesota, priority 1995, dated 1998).
Where two headings read alike, the source gives them in different places. Where a SMILES comes first, the peptide text is derived from it. [ ]: non-standard residue; d: D form. The star is where a group is joined. Dnp = O=[N+]([O-])c1ccc(*)c([N+](=O)[O-])c1; Mca = COc1ccc2c(CC(=O)*)cc(=O)oc2c1; Nva = CCC[C@H](N)C(=O)O

Tests used:
MMP-9 [1] = target: T1, MMP-9 (Homo sapiens, UniProt P14780); experiment: Fluorometric hydrolysis of synthetic Mca/Lys(Dnp) substrates by MMP-9; assay type: biochemical; design: made in house; host or cells: native secreted protein purified from culture medium of HT-1080 cells
Text: (§1) All MMPs were purified in zymogen form. ProMMP-1 (Suzuki et al., Biochem., 29, 10261 (1990)), proMMP-2 (Okada et al., Eur. J. Biochem., 194, 721 (1990)), and proMMP-3 (Ito et al., Arch. Biochem. Biophys., 267, 211 (1988)) were purified from the culture medium of human rheumatoid synovial cells stimulated with rabbit macrophage-conditioned medium. ProMMP-9 was purified from the culture medium of HT-1080 cells as described in Morodomi et al., Biochem. J., 285, 603 (1992). ProMMP-2 and proMMP-9 were activated by reacting with 1 mM 4-aminophenylmercuric acetate at 37° C. for 45 minutes and 32 hours, respectively. ProMMP-1 was activated by reacting with 1 mM 4-aminophenylmercuric acetate and an equimolar amount of MMP-3 at 37° C. for 6 hours. After activation, MMP-3 was completely removed from MMP-1 by affinity chromatography using an anti-MMP-3 IgG Affi-Gel 10 column. The resin, Affi-Gel 10 (Biorad, Emoryville, Calif.), was coupled to anti-MMP-3 IgG (Okada et al., Annals of Rheumat. Dis., 48, 645 (1989)) per the manufacturer's protocol. Pro-MMP-3 was activated by reacting with 5 μg/mL chymotrypsin at 37° C. for 2 hours. Chymotrypsin was inactivated with 2 mM diisopropylfluorophosphate. The amounts of active MMP-1, MMP-2, and MMP-3 were determined by titration with tissue inhibitor of metalloproteinase-1(TIMP1) over a concentration range of 0.1-3 μg/mL, while the amount of active MMP-9 was determined by titration with TIMP-2 (0.1-3 μg/mL). TIMP-1 was isolated from the medium of HT-1080 cells as described in Morodomi et al., Biochem J., 285, 603 (1992).
(§2) Substrates were prepared as 10 mM stock solutions in dimethylsulfoxide (DMSO). Fluorescent assays were performed at λex =325 nm and λem =393 nm, which should encounter no interference from Trp residues, using a Hitachi fluorescence spectrophotometer F-3010. Initial total hydrolysis assays were run at a substrate concentration of […] to avoid filtering effects. The change in fluorescence at this concentration was 110 based on total hydrolysis of 1 μM substrate. A typical assay was carried out by incubating 100 μL of various concentrations of a substrate with 10 μL of an enzyme solution (2-20 nM) in 50 mM Tris-HCl, pH 7.5, 0.15M NaCl, 10 mM CaCl2, 0.05% Brij 35, 0.02% NaN3. The reaction was stopped by addition of 900 μl of 3% (v/v) glacial acetic acid. MMP-3 activity at pH 6.0 was measured in 50 mM sodium acetate buffer, pH 6.0, instead of Tris-HCl buffer. The amount of substrate hydrolysis was calculated based on the fluorescence values of the Mca-Arg-Pro-Lys-Pro-Gln standard solution after substraction of the reaction blank value (stopping solution added before the enzyme). Individual kinetic parameters (kcat and KM) were determined over a substrate concentration range of 2.5-75 μM and calculated by double reciprocal plots.

MMP-9 [2] = target: T1, MMP-9; experiment: as above; assay type: biochemical; design: made in house; host or cells: native secreted protein purified from culture medium of HT-1080 cells; conditions: Edman degradation analysis after 36-72 hour treatment of substrate with MMP
MMP-1 = target: T2, MMP-1 (Homo sapiens, UniProt P03956); experiment: Fluorometric hydrolysis of synthetic Mca/Lys(Dnp) substrates by MMP-1; assay type: biochemical; design: made in house; host or cells: native secreted protein purified from culture medium of human rheumatoid synovial cells; conditions: for site of hydrolysis by MMP-1: Edman degradation analysis after 36-72 hour treatment of substrate with MMP
T2 sequence (P03956 100-469): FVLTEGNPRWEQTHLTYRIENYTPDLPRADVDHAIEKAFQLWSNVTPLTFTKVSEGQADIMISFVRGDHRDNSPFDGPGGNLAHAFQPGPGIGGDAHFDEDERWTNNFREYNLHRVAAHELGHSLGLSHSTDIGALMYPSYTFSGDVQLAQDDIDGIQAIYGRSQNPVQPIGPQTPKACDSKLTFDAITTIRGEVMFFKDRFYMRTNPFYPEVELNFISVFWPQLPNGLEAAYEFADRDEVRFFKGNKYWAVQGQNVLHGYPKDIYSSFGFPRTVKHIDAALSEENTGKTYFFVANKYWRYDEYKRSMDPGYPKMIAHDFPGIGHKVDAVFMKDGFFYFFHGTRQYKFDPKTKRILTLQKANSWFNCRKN
Text: as §1, §2

MMP-3 [3] = target: T3, MMP-3 (Homo sapiens, UniProt P08254); experiment: Fluorometric hydrolysis of synthetic Mca/Lys(Dnp) substrates by MMP-3; assay type: biochemical; design: made in house; host or cells: native secreted protein purified from culture medium of human rheumatoid synovial cells; conditions: Edman degradation analysis after 36-72 hour treatment of substrate with MMP
Target sequence in this assay (P08254 100-477): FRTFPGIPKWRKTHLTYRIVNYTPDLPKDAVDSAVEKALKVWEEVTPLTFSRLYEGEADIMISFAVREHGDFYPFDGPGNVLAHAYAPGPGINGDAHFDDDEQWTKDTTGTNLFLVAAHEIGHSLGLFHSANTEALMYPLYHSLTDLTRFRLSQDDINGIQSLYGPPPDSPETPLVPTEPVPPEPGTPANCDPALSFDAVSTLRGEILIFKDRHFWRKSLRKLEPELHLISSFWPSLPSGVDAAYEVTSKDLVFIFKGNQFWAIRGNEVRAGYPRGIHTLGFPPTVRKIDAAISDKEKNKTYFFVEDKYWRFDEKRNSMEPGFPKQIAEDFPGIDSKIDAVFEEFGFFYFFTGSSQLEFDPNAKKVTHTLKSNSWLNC

MMP-2 = target: T4, MMP-2 (Homo sapiens, UniProt P08253); experiment: Fluorometric hydrolysis of synthetic Mca/Lys(Dnp) substrates by MMP-2; assay type: biochemical; design: made in house; host or cells: native secreted protein purified from culture medium of human rheumatoid synovial cells; conditions: for site of hydrolysis by MMP-2: Edman degradation analysis after 36-72 hour treatment of substrate with MMP
T4 sequence (P08253 110-660): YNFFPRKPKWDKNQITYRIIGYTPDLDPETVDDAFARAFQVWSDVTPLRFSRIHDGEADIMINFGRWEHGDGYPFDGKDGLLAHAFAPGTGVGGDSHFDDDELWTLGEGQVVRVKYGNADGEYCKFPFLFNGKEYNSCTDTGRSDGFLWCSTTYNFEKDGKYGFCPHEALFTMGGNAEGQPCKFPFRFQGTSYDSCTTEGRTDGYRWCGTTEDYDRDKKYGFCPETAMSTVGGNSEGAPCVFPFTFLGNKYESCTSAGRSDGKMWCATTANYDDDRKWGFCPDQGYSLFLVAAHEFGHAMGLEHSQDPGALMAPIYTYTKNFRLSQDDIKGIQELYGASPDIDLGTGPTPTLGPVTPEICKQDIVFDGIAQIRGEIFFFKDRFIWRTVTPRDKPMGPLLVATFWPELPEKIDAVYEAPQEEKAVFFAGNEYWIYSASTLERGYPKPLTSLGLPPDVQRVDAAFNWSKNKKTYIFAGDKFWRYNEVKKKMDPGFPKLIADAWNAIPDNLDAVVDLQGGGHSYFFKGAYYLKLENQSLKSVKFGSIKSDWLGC
Text: as §1, §2

MMP-3 [4] = target: T3, MMP-3; experiment: Fluorometric hydrolysis of synthetic Mca/Lys(Dnp) substrates by MMP-3; assay type: biochemical; design: made in house; host or cells: native secreted protein purified from culture medium of human rheumatoid synovial cells; conditions: for kcat /Km: MMP-3, 37° C., pH 7.5
Text: as §1, §2
Target sequence in this assay (P08254 100-477): as the sequence (P08254 100-477) above

MMP-3 [5] = target: T3, MMP-3; conditions: MMP-3 cleavage, cited from earlier work
Target sequence in this assay (P08254 100-477, species assumed): as the sequence (P08254 100-477) above

MMP-3 [6] = target: T3, MMP-3; conditions: cited from earlier work
Target sequence in this assay (P08254 100-477, species assumed): as the sequence (P08254 100-477) above

T1 sequence (P14780 107-707 limits assumed): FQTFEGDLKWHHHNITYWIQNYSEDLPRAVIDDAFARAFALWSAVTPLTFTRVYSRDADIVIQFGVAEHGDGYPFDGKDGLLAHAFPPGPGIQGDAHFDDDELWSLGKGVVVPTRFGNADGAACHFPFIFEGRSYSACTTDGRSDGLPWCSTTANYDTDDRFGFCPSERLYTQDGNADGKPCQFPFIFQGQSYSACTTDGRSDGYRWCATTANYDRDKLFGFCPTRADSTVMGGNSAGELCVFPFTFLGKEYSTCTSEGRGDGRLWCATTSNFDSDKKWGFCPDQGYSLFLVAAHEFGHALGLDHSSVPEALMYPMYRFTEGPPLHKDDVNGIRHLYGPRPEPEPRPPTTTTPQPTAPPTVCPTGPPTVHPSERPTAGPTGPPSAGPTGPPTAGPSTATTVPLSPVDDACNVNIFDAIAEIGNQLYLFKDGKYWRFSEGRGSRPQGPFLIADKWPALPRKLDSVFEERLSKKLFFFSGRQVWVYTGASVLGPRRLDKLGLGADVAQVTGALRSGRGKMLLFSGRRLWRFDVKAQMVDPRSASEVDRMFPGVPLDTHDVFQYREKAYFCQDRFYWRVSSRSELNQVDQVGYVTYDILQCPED

COc1ccc2c(CC(=O)N3CCC[C@H]3C(=O)N[C@@H](CCCCN)C(=O)N3CCC[C@H]3C(=O)N[C@@H](CCC(N)=O)C(=O)N[C@@H](CCC(N)=O)C(=O)N[C@@H](Cc3ccccc3)C(=O)N[C@@H](Cc3ccccc3)C(=O)NCC(=O)N[C@@H](CC(C)C)C(=O)N[C@@H](CCCCNc3ccc([N+](=O)[O-])cc3[N+](=O)[O-])C(=O)NCC(=O)O)cc(=O)oc2c1 [NFF-1, Mca-Pro-Lys-Pro-Gln-Gln-Phe-Phe-Gly-Leu-Lys(Dnp)-Gly] (Mca-PKPQQFFGLK(Dnp)G-OH)
less activity of MMP-9 than MMP-3 towards the substrate (MMP-9 [1]; MMP-9 compared with MMP-3): 60% | site of hydrolysis by MMP-9 (MMP-9 [2]): Gly--Leu bond | ratio of hydrolysis at the Gln-Phe and Gly-Leu bonds by MMP-1 (MMP-1; Edman degradation analysis after 36-72 hour treatment): 3.2 | site of hydrolysis by MMP-1 (MMP-1): Gln--Phe and Gly--Leu bonds | less activity of MMP-1 than MMP-3 towards the substrate (MMP-1; MMP-1 compared with MMP-3): 75% | site of hydrolysis by MMP-3 (MMP-3 [3]): Gln--Phe bond | site of hydrolysis by MMP-2 (MMP-2): Gln--Phe bond | kcat /Km (MMP-3 [4]): 10,900 S^-1 M^-1 | hydrolysis by MMP-3 compared with MMP-2 (MMP-3 [4]; MMP-3 and MMP-2): equally well

CCC[C@H](NC(=O)[C@H](C)NC(=O)[C@H](Cc1ccc(O)cc1)NC(=O)[C@@H]1CCCN1C(=O)[C@H](CCCCN)NC(=O)[C@@H]1CCCN1C(=O)[C@H](CCCNC(=N)N)NC(=O)Cc1cc(=O)oc2cc(OC)ccc12)C(=O)N[C@@H](Cc1c[nH]c2ccccc12)C(=O)N[C@@H](CCSC)C(=O)N[C@@H](CCCCNc1ccc([N+](=O)[O-])cc1[N+](=O)[O-])C(N)=O [NFF-2, Mca-Arg-Pro-Lys-Pro-Tyr-Ala-Nva-Trp-Met-Lys(Dnp)-NH2] (Mca-RPKPYA[Nva]WMK(Dnp)-NH2)
hydrolysis by MMP-9 (MMP-9 [1]): most rapidly hydrolyzed substrate for MMP-9 reported to date | hydrolyzed more rapidly than NFF-1 by MMP-9 (MMP-9 [1]; rate relative to NFF-1): 14 times | site of hydrolysis by MMP-9 (MMP-9 [2]): Ala--Nva bond | site of hydrolysis by MMP-1 (MMP-1): Ala--Nva bond | MMP-1 activity reduced compared to NFF-1 (MMP-1; relative to NFF-1): ~ 50% | site of hydrolysis by MMP-3 (MMP-3 [3]): Ala--Nva bond | site of hydrolysis by MMP-2 (MMP-2): Ala--Nva bond | hydrolyzed more rapidly than NFF-1 by MMP-2 (MMP-2; rate relative to NFF-1): 5 times | kcat /Km (MMP-3 [4]): 59,400 S^-1 M^-1 | hydrolyzed more rapidly than NFF-1 by MMP-3 (MMP-3 [4]; rate relative to NFF-1): 6 times | hydrolyzed more rapidly by MMP-3 than MMP-1 (MMP-3 [4]; selectivity MMP-3 over MMP-1): 60 times

Antithrombin III
kcat /Kb (MMP-3 [5]; determined at 37° C.): < 50 S^-1 M^-1

Dnp--Pro--Tyr--Ala"--"Tyr--Trp--Met--Arg--NH3 (Dnp-PYAYWMR-NH2; not fully specified; printed as Dnp—Pro—Tyr—Ala"—"Tyr—Trp—Met—Arg—NH$_3$) [literature fluorogenic substrate (Netzel-Arnett et al., 1991)]
kcat (MMP-3 [6]; MMP-3, assay at 23° C.): 0.24 S^-1 | Km (MMP-3 [6]; MMP-3, assay at 30° C.): 0.1 mM | kcat Km (MMP-3 [6]; MMP-3, assay at 37° C.): 2,400 S^-1 M^-1

Dnp-Arg-Pro-Lys-Pro-Leu-Ala-Nva-Trp-NH2 (Dnp-RPKPLA[Nva]W-NH2; SMILES CCC[C@H](NC(=O)[C@H](C)NC(=O)[C@H](CC(C)C)NC(=O)[C@@H]1CCCN1C(=O)[C@H](CCCCN)NC(=O)[C@@H]1CCCN1C(=O)[C@H](CCCNC(=N)N)Nc1ccc([N+](=O)[O-])cc1[N+](=O)[O-])C(=O)N[C@@H](Cc1c[nH]c2ccccc12)C(N)=O) [literature fluorogenic MMP-3 substrate (Niedzwiecki et al., 1992)]
kcat Km (MMP-3 [6]; MMP-3, assay at 25° C.): 45,000 S^-1 M^-1

Gly--Pro--Gln--Gly"--"Ile--Ala--Met--Gln (chain 1 GPQG; chain 2 IAMQ; printed: Gly--Pro--Gln--Gly; printed: Ile--Ala--Met--Gln) [literature synthetic MMP-3 substrate (Fields, 1988)]
Km (MMP-3 [6]; MMP-3, assay at 30° C.): 5.6 mM | kcat (MMP-3 [6]; MMP-3, assay at 30° C.): 0.69 S^-1 | kcat Km (MMP-3 [6]; MMP-3, assay at 30° C.): 120 S^-1 M^-1

Human aggrecan: extracellular matrix protein cleaved by MMP-3 at Asn341-Phe342
kcat /Kb (MMP-3 [5]; determined at 22° C.): 4,000 S^-1 M^-1

Human α2 -macroglobulin: protein substrate of MMP-3; cleavage sites Gly679-Leu680 and Phe684-Tyr685
kcat /Kb (MMP-3 [5]; determined at 25° C.): 56,000 S^-1 M^-1

Substance P: 11 residue peptide substrate of MMP-3, cleaved at Gln6-Phe7 [reference compound]
kcat /Kb (MMP-3 [5]; determined at 37° C.): 1,790 S^-1 M^-1

α1 -Protease inhibitor: protease inhibitor cleaved by MMP-3 at Pro357-Met358
kcat /Kb (MMP-3 [5]; determined at 37° C.): 5,400 S^-1 M^-1
